Experimental data reported in EP4806898A1, “HETEROARYL DERIVATIVE COMPOUND AND USE THEREOF” (Voronoi Inc., priority 2023, dated 2025).
Where two headings read alike, the source gives them in different places.

Tests used:
UWB1.289 cells = test: Cell proliferation inhibitory activity in BRCA1/2-mutant or HRD-positive cells (Cell Titer-Glo); assay type: cell-based; settings: read-out: GI50 UWB1.289 BRCA1 mut
How it was run: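 UWB1.289 cells (1,000/well) in 50% MEBM/50% RPMI1640 exposed to […], final 1.5 nM to 10 µM, for 144 h at 37 °C. Viable cells measured by CellTiter-Glo luminescence; GI50 calculated.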

recombinant USP1 protein = molecular target: T1, recombinant USP1 protein (Homo sapiens, UniProt O94782, DEL125-138/DEL229-408/DEL608-737); test: Binding affinity to recombinant USP1 protein by differential scanning fluorimetry; settings: read-out: ΔTm (°C)
T1 sequence (O94782 with tags, fused parts or gaps DEL125-138/DEL229-408/DEL608-737): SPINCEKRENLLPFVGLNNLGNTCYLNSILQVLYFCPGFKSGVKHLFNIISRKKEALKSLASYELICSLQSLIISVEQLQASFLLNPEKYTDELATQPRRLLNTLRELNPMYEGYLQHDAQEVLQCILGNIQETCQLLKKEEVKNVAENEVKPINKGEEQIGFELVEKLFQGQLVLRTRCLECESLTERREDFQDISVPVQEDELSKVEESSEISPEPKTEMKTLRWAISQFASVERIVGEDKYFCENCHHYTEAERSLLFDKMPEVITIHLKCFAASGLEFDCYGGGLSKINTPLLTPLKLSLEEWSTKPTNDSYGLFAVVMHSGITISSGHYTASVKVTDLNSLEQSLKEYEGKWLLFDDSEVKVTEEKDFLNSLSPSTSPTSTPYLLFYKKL
How it was run: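 USP1 (Δ1-66, Δ125-138, Δ229-408, Δ608-737) at 0.03 mg/mL with dye in 50 mM Tris-HCl pH 8.0, 150 mM NaCl, 2% glycerol, 1 mM DTT; compounds at 100 µM final. Tm read on real-time PCR instrument; ΔTm = Tm with compound minus Tm with DMSO.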

[1] = UWB1289, UWB1.289 cells, 144 hours after compound treatment, Cell Titer-Glo, 1.5 nM to 10 µM
[2] = compound 100 µM, 0.03 mg/mL USP1 (Δ1-66, Δ125-138, Δ229-408, Δ608-737), Tm with compound minus Tm with DMSO

Row | SMILES | GI50 (UWB1.289 cells; [1]) [nM] | ΔTm at 100 µM (recombinant USP1 protein; [2]) [°C] | GI50 (UWB1.289 cells; UWB1289, 144 h) [nM] | ΔTm at 100 µM (recombinant USP1 protein) [°C]
1 | COc1ncnc(C2CC2)c1-c1ncc2cc(C(=O)NC[C@@H]3CCCO3)n(Cc3ccc(-c4nc(C(F)(F)F)cn4C(C)C)cc3)c2n1 [Example 124, (S)-2-(4-cyclopropyl-6-methoxypyrimidin-5-yl)-7-(4-(1-isopropyl-4-(trifluoromethyl)-1H-imidazol-2-yl)benzyl)-N-((tetrahydrofuran-2-yl)methyl)-7H-pyrrolo[2,3-d]pyrimidine-6-carboxamide] | < 100 | > 5 |  | 
2 | COc1ncnc(C2CC2)c1-c1ncc2cc(C(=O)NCC3(C)COC3)n(Cc3ccc(-c4nc(C(F)(F)F)cn4C(C)C)cc3)c2n1 [Example 125, 2-(4-cyclopropyl-6-methoxypyrimidin-5-yl)-7-(4-(1-isopropyl-4-(trifluoromethyl)-1H-imidazol-2-yl)benzyl)-N-((3-methyloxetan-3-yl)methyl)-7H-pyrrolo[2,3-d]pyrimidine-6-carboxamide] | < 100 | > 5 |  | 
3 | COc1ncnc(C2CC2)c1-c1ncc2cc(C(=O)NC3CCN(CC(C)(C)F)CC3)n(Cc3ccc(-c4nc(C(F)(F)F)cn4C(C)C)cc3)c2n1 [Example 126, 2-(4-cyclopropyl-6-methoxypyrimidin-5-yl)-N-(1-(2-fluoro-2-methylpropyl)piperidin-4-yl)-7-(4-(1-isopropyl-4-(trifluoromethyl)-1H-imidazol-2-yl)benzyl)-7H-pyrrolo[2,3-d]pyrimidine-6-carboxamide] | < 100 | > 5 |  | 
4 | COc1ncnc(C2CC2)c1-c1ncc2cc(C(=O)NC[C@H]3CCCO3)n(Cc3ccc(-c4nc(C(F)(F)F)cn4C(C)C)cc3)c2n1 [Example 127, (R) -2-(4-cyclopropyl-6-methoxypyrimidin-5-yl)-7-(4-(1-isopropyl-4-(trifluoromethyl)-1H-imidazol-2-yl)benzyl)-N-((tetrahydrofuran-2-yl)methyl)-7H-pyrrolo[2,3-d]pyrimidine-6-carboxamide] | < 100 | > 5 |  | 
5 | COc1ncnc(C2CC2)c1-c1ncc2cc(C(=O)N3CC[C@H](OC)C3)n(Cc3ccc(-c4nc(C(F)(F)F)cn4C(C)C)cc3)c2n1 [Example 128, (S)-(2-(4-cyclopropyl-6-methoxypyrimidin-5-yl)-7-(4-(1-isopropyl-4-(trifluoromethyl)-1H-imidazol-2-yl)benzyl)-7H-pyrrolo[2,3-d]pyrimidin-6-yl) (3-methoxypyrrolidin-1-yl)methanone] | < 100 | > 5 |  | 
6 | COc1ncnc(C2CC2)c1-c1ncc2cc(C(=O)N[C@H]3C[C@H]3F)n(Cc3ccc(-c4nc(C(F)(F)F)cn4C(C)C)cc3)c2n1 [Example 129, 2-(4-cyclopropyl-6-methoxypyrimidin-5-yl)-N-((1S,2R)-2-fluorocyclopropyl)-7-(4-(1-isopropyl-4-(trifluoromethyl)-1H-imidazol-2-yl)benzyl)-7H-pyrrolo[2,3-d]pyrimidine-6-carboxamide] | < 100 | > 5 |  | 
7 | CNC(=O)c1cc2cnc(-c3c(OC4CC4)ncnc3C3CC3)nc2n1Cc1ccc(-c2nc(C(F)(F)F)cn2C(C)C)cc1 [Example 130, 2-(4-cyclopropoxy-6-cyclopropylpyrimidin-5-yl)-7-(4-(1-isopropyl-4-(trifluoromethyl)-1H-imidazol-2-yl)benzyl)-N-methyl-7H-pyrrolo[2,3-d]pyrimidine-6-carboxamide] | < 100 | > 5 |  | 
8 | COc1ncnc(C2CC2)c1-c1ncc2cc(C(=O)N[C@H]3C[C@@H](OC)C3)n(Cc3ccc(-c4nc(C(F)(F)F)cn4C(C)C)cc3)c2n1 [Example 131, 2-(4-cyclopropyl-6-methoxypyrimidin-5-yl)-7-(4-(1-isopropyl-4-(trifluoromethyl)-1H-imidazol-2-yl)benzyl)-N-((1s,3s)-3-methoxycyclobutyl)-7H-pyrrolo[2,3-d]pyrimidine-6-carboxamide] | < 100 | > 5 |  | 
9 | CCC1(NC(=O)c2cc3cnc(-c4c(OC)ncnc4C4CC4)nc3n2Cc2ccc(-c3nc(C(F)(F)F)cn3C(C)C)cc2)COC1 [Example 132, 2-(4-cyclopropyl-6-methoxypyrimidin-5-yl)-N-(3-ethyloxetan-3-yl)-7-(4-(1-isopropyl-4-(trifluoromethyl)-1H-imidazol-2-yl)benzyl)-7H-pyrrolo[2,3-d]pyrimidine-6-carboxamide] | < 100 | > 5 |  | 
10 | COc1ncnc(C2CC2)c1-c1ncc2cc(C(=O)NC3CCN(CC4(F)CC4)CC3)n(Cc3ccc(-c4nc(C(F)(F)F)cn4C(C)C)cc3)c2n1 [Example 133, 2-(4-cyclopropyl-6-methoxypyrimidin-5-yl)-N-(1-((1-fluorocyclopropyl)methyl)piperidin-4-yl)-7-(4-(1-isopropyl-4-(trifluoromethyl)-1H-imidazol-2-yl)benzyl)-7H-pyrrolo[2,3-d]pyrimidine-6-carboxamide] | < 100 | > 5 |  | 
11 | CNC(=O)c1cc2cnc(-c3cccnc3C(C)C)nc2n1Cc1ccc(-c2nc(C(F)(F)F)cn2C(C)C)cc1 [Example 134, 7-(4-(1-isopropyl-4-(trifluoromethyl)-1H-imidazol-2-yl)benzyl)-2-(2-isopropylpyridin-3-yl)-N-methyl-7H-pyrrolo[2,3-d]pyrimidine-6-carboxamide] | < 100 | > 5 |  | 
12 | COc1ncnc(C2CC2)c1-c1ncc2cc(C(=O)NC[C@H](C)OC)n(Cc3ccc(-c4nc(C(F)(F)F)cn4C(C)C)cc3)c2n1 [Example 135, (S)-2-(4-cyclopropyl-6-methoxypyrimidin-5-yl)-7-(4-(1-isopropyl-4-(trifluoromethyl)-1H-imidazol-2-yl)benzyl)-N-(2-methoxypropyl) -7H-pyrrolo[2,3-d]pyrimidine-6-carboxamide] | < 100 | > 5 |  | 
13 | COc1ncnc(C2CC2)c1-c1ncc2cc(C(=O)NC3CCN(C(C)C)CC3)n(Cc3ccc(-c4nc(C(F)(F)F)cn4C(C)C)cc3)c2n1 [Example 137, 2-(4-cyclopropyl-6-methoxypyrimidin-5-yl)-7-(4-(1-isopropyl-4-(trifluoromethyl)-1H-imidazol-2-yl)benzyl)-N-(1-isopropylpiperidin-4-yl)-7H-pyrrolo[2,3-d]pyrimidine-6-carboxamide] | < 100 | > 5 |  | 
14 | COc1ncnc(C2CC2)c1-c1ncc2cc(C(=O)NC3(CO)COC3)n(Cc3ccc(-c4nc(C(F)(F)F)cn4C(C)C)cc3)c2n1 [Example 138, 2-(4-cyclopropyl-6-methoxypyrimidin-5-yl)-N-(3-(hydroxymethyl)oxetan-3-yl)-7-(4-(1-isopropyl-4-(trifluoromethyl)-1H-imidazol-2-yl)benzyl)-7H-pyrrolo[2,3-d]pyrimidine-6-carboxamide] | < 100 | > 5 |  | 
15 | COc1ncnc(C2CC2)c1-c1ncc2cc(C(=O)N(C)CC3COC3)n(Cc3ccc(-c4nc(C(F)(F)F)cn4C(C)C)cc3)c2n1 [Example 139, 2-(4-cyclopropyl-6-methoxypyrimidin-5-yl)-7-(4-(1-isopropyl-4-(trifluoromethyl)-1H-imidazol-2-yl)benzyl)-N-methyl-N-(oxetan-3-ylmethyl)-7H-pyrrolo[2,3-d]pyrimidine-6-carboxamide] |  |  | < 100 | > 5
16 | COc1ncnc(C2CC2)c1-c1ncc2cc(C(=O)NCC3(O)COC3)n(Cc3ccc(-c4nc(C(F)(F)F)cn4C(C)C)cc3)c2n1 [Example 140, 2-(4-cyclopropyl-6-methoxypyrimidin-5-yl)-N-((3-hydroxyoxetan-3-yl)methyl)-7-(4-(1-isopropyl-4-(trifluoromethyl)-1H-imidazol-2-yl)benzyl)-7H-pyrrolo[2,3-d]pyrimidine-6-carboxamide] |  |  | < 100 | > 5
17 | COc1ncnc(C2CC2)c1-c1ncc2cc(C(=O)NCC3COC3)n(Cc3ccc(-c4nc(C(F)(F)F)cn4C(C)C)cc3)c2n1 [Example 141, 2-(4-cyclopropyl-6-methoxypyrimidin-5-yl)-7-(4-(1-isopropyl-4-(trifluoromethyl)-1H-imidazol-2-yl)benzyl)-N-(oxetan-3-ylmethyl) -7H-pyrrolo[2,3-d]pyrimidine-6-carboxamide] | < 100 | > 5 |  | 
18 | COc1ncnc(C2CC2)c1-c1ncc2cc(C(=O)NCC3(F)COC3)n(Cc3ccc(-c4nc(C(F)(F)F)cn4C(C)C)cc3)c2n1 [Example 142, 2-(4-cyclopropyl-6-methoxypyrimidin-5-yl)-N-((3-fluorooxetan-3-yl)methyl)-7-(4-(1-isopropyl-4-(trifluoromethyl)-1H-imidazol-2-yl)benzyl)-7H-pyrrolo[2,3-d]pyrimidine-6-carboxamide] | < 100 | > 5 |  | 
